Measurements published in ChEMBL document CHEMBL1201862, “PubChem BioAssay data set” (2004).
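Where inhibition never reached the appropriate level, the endpoint shown equals the highest concentration tested. Otherwise, values were interpolated linearly from a five-concentration, 48-hour dose response in 96-well plates. GI50 marks 50% less growth.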 Active and inactive are the calls of the source. Cut-off read from the data, not from the text of the source: active = GI50 up to about 1.1 µM and inactive = higher. Residues, ends and D or L forms follow the SMILES beside them. *: point of attachment. Cbz = O=C(OCc1ccccc1)*

Assays:
Assay in all cases: inhibition of tumour cell growth, NCI panel, 48 h
ACHN = tested on: ACHN
NCI-H23 = tested on: NCI-H23
OVCAR-4 = tested on: OVCAR-4
SK-MEL-2 = tested on: SK-MEL-2
OVCAR-8 = tested on: OVCAR-8
UACC-257 = tested on: UACC-257
K562 = tested on: K562
KM12 = tested on: KM12
OVCAR-5 = tested on: OVCAR-5
HCT-116 = tested on: HCT-116
SK-MEL-5 = tested on: SK-MEL-5
SK-MEL-28 = tested on: SK-MEL-28
SW-620 = tested on: SW-620
LOX IMVI = tested on: LOX IMVI
SR = tested on: SR
M14 = tested on: M14
IGROV-1 = tested on: IGROV-1
NCI-H460 = tested on: NCI-H460
MOLT-4 = tested on: MOLT-4
HL-60 = tested on: HL-60

| SMILES | GI50 (ACHN) | GI50 (NCI-H23) | GI50 (OVCAR-4) | GI50 (SK-MEL-2) | GI50 (OVCAR-8) | GI50 (UACC-257) | GI50 (K562) | GI50 (KM12) | GI50 (OVCAR-5) | GI50 (HCT-116) | GI50 (SK-MEL-5) | GI50 (SK-MEL-28) | GI50 (SW-620) | GI50 (LOX IMVI) | GI50 (SR) | GI50 (M14) | GI50 (IGROV-1) | GI50 (NCI-H460) | GI50 (MOLT-4) | GI50 (HL-60) |
| --- | --- | --- | --- | --- | --- | --- | --- | --- | --- | --- | --- | --- | --- | --- | --- | --- | --- | --- | --- | --- |
| CCOC(=O)C1Cc2[nH]c3ccccc3c2C(C)C1C (configuration not stated) | 13.7 µM (inactive) | 13.5 µM (inactive) | 16 µM (inactive) | 20.2 µM (inactive) | 3.55 µM (inactive) | 17.6 µM (inactive) | 23.5 µM (inactive) | 17 µM (inactive) | 17 µM (inactive) | 16.3 µM (inactive) | 14 µM (inactive) | 17.1 µM (inactive) | 17.3 µM (inactive) | 14.8 µM (inactive) | 16.6 µM (inactive) | 16.7 µM (inactive) | 15.3 µM (inactive) | 17.3 µM (inactive) | 10.8 µM (inactive) |  |
| N=C(N)c1ccc(/C=C/c2ccc(C(=N)N)cc2)cc1 | > 100 µM (inactive) | 78.5 µM (inactive) | > 100 µM (inactive) | 27.1 µM (inactive) | 85.7 µM (inactive) | 65.9 µM (inactive) | 49.8 µM (inactive) | > 100 µM (inactive) | 81.8 µM (inactive) | > 100 µM (inactive) | 29.1 µM (inactive) | 45.8 µM (inactive) | 96.8 µM (inactive) | > 100 µM (inactive) | > 100 µM (inactive) | > 100 µM (inactive) | 70.8 µM (inactive) | 34.5 µM (inactive) | > 100 µM (inactive) |  |
| CC1(C)C2C/C(=C\c3ccccc3)C(=O)C1C2 (configuration not stated) | > 100 µM (inactive) | 55.8 µM (inactive) | > 100 µM (inactive) | > 100 µM (inactive) | > 100 µM (inactive) | 58.1 µM (inactive) | > 100 µM (inactive) | > 100 µM (inactive) | > 100 µM (inactive) | 90.4 µM (inactive) | 45.5 µM (inactive) | 87.5 µM (inactive) | > 100 µM (inactive) | > 100 µM (inactive) |  | > 100 µM (inactive) | > 100 µM (inactive) | > 100 µM (inactive) | 56.9 µM (inactive) | 35.9 µM (inactive) |
| CC(=O)OC1c2ccccc2CCCCCCC12OCCO2 (configuration not stated) | > 100 µM (inactive) | > 100 µM (inactive) | > 100 µM (inactive) | > 100 µM (inactive) | > 100 µM (inactive) | 55.5 µM (inactive) | 55.2 µM (inactive) | > 100 µM (inactive) | > 100 µM (inactive) | > 100 µM (inactive) | 55.5 µM (inactive) | > 100 µM (inactive) | > 100 µM (inactive) | > 100 µM (inactive) |  | 86.5 µM (inactive) | > 100 µM (inactive) | > 100 µM (inactive) | 60.3 µM (inactive) | 44.3 µM (inactive) |
| O=c1c2cc(Br)cc(Br)c2nc(CCCl)n1CCO | 60.7 µM (inactive) | 49.9 µM (inactive) | 52.8 µM (inactive) | > 100 µM (inactive) | > 100 µM (inactive) | 72.9 µM (inactive) | 52.5 µM (inactive) | > 100 µM (inactive) | > 100 µM (inactive) | > 100 µM (inactive) | 53.2 µM (inactive) | 52 µM (inactive) | > 100 µM (inactive) | > 100 µM (inactive) |  | 97.7 µM (inactive) | 75.9 µM (inactive) | > 100 µM (inactive) | 46.9 µM (inactive) | 37.8 µM (inactive) |
| COc1ccc(OC)c2c1C=CC(Br)=CC2 | 0.312 µM (active) | 0.259 µM (active) | 0.4 µM (active) | 0.106 µM (active) | 0.43 µM (active) | 0.255 µM (active) | 0.173 µM (active) | 0.309 µM (active) |  | 0.232 µM (active) | 0.216 µM (active) | 0.35 µM (active) | 0.234 µM (active) | 0.158 µM (active) | 0.191 µM (active) | 0.237 µM (active) | 0.279 µM (active) | 0.211 µM (active) | 0.144 µM (active) |  |
| NNC(=O)c1ccccc1NC(=O)/C(=C/c1ccccc1)NC(=O)c1ccccc1 | > 100 µM (inactive) | > 100 µM (inactive) | > 100 µM (inactive) | > 100 µM (inactive) | > 100 µM (inactive) | 71.6 µM (inactive) | > 100 µM (inactive) | 27.8 µM (inactive) | > 100 µM (inactive) | 88.1 µM (inactive) | > 100 µM (inactive) | > 100 µM (inactive) | > 100 µM (inactive) | 68.1 µM (inactive) |  | 81.1 µM (inactive) | 68.1 µM (inactive) | 80 µM (inactive) | > 100 µM (inactive) | 76.9 µM (inactive) |
| CC(Cc1ccccc1)N(C)Cc1nc(C2CCC([N+](=O)[O-])O2)no1 (configuration not stated) |  | 5.18 µM (inactive) | 8.47 µM (inactive) |  | 12.7 µM (inactive) | 7.31 µM (inactive) |  | 4.55 µM (inactive) | 15.6 µM (inactive) | 7.29 µM (inactive) | 11.5 µM (inactive) | 11.9 µM (inactive) | 3.1 µM (inactive) | 3.19 µM (inactive) | 16.7 µM (inactive) | 6 µM (inactive) | 8.55 µM (inactive) |  | 19.5 µM (inactive) | 6.49 µM (inactive) |
| N#Cc1cc([N+](=O)[O-])ccc1NC(=O)C(=O)Nc1n[nH]c(N)n1 | > 100 µM (inactive) | > 100 µM (inactive) | > 100 µM (inactive) | > 100 µM (inactive) | > 100 µM (inactive) | > 100 µM (inactive) | > 100 µM (inactive) | > 100 µM (inactive) | > 100 µM (inactive) | > 100 µM (inactive) | > 100 µM (inactive) | > 100 µM (inactive) | > 100 µM (inactive) | > 100 µM (inactive) |  | > 100 µM (inactive) | > 100 µM (inactive) | > 100 µM (inactive) | > 100 µM (inactive) | > 100 µM (inactive) |
| CCOc1ccc2ccccc2c1NC1=NCCO1 | 20.6 µM (inactive) | 28.8 µM (inactive) | 26.8 µM (inactive) |  | 74.6 µM (inactive) | 34.6 µM (inactive) | 19.8 µM (inactive) | 24.9 µM (inactive) | > 100 µM (inactive) | 36.9 µM (inactive) | 44.9 µM (inactive) | > 100 µM (inactive) | 46.1 µM (inactive) |  | 31.5 µM (inactive) | 37.2 µM (inactive) | 33.9 µM (inactive) | 12.7 µM (inactive) | 27.5 µM (inactive) | 19.9 µM (inactive) |
| CC(=O)O[C@H]1CCC2[C@@H]3CC[C@]4(C)CC(=O)C=C[C@]4(C)C3CC[C@@]21C (some centres not stated) | 49 µM (inactive) | 21.9 µM (inactive) | 16.9 µM (inactive) | 20.8 µM (inactive) | 17.3 µM (inactive) | 20.6 µM (inactive) | 20.2 µM (inactive) | 20.6 µM (inactive) | > 80.5 µM (inactive) | 16.8 µM (inactive) | 14.8 µM (inactive) | 18.5 µM (inactive) | 18.3 µM (inactive) | 16.9 µM (inactive) |  | 19.2 µM (inactive) | 23.8 µM (inactive) | 17.5 µM (inactive) | 23.2 µM (inactive) | 20.4 µM (inactive) |
| COc1cc([C@@H]2c3cc4c(cc3[C@@H](NCc3ccccc3F)C3COC(=O)[C@@H]32)OCO4)cc(OC)c1O (some centres not stated) | 1.11 µM (active) | 2.29 µM (inactive) | 16.6 µM (inactive) | 23.4 µM (inactive) | 6.03 µM (inactive) | 3.1 µM (inactive) | 1.47 µM (inactive) | 3.99 µM (inactive) | 24.8 µM (inactive) | 5.27 µM (inactive) | 0.828 µM (active) | 12.2 µM (inactive) | 0.851 µM (active) | 3.07 µM (inactive) |  | 3.01 µM (inactive) | 1.11 µM (active) | 0.56 µM (active) | 0.425 µM (active) | 1.18 µM (inactive) |
| C1=C2C3=[N+](CCCC3)CC2Cc2sccc21 (configuration not stated) | > 100 µM (inactive) | > 100 µM (inactive) | 42.5 µM (inactive) | > 100 µM (inactive) | > 100 µM (inactive) | 33.3 µM (inactive) | > 100 µM (inactive) | 45.6 µM (inactive) | > 100 µM (inactive) | > 100 µM (inactive) | 57.7 µM (inactive) | > 100 µM (inactive) | > 100 µM (inactive) | > 100 µM (inactive) |  | > 100 µM (inactive) | > 100 µM (inactive) | 52.7 µM (inactive) | > 100 µM (inactive) | > 100 µM (inactive) |
| O=S(=O)(O)c1cccc2c(/N=N/c3c(O)ccc4ccccc34)cccc12 | > 100 µM (inactive) | > 100 µM (inactive) | > 100 µM (inactive) | > 100 µM (inactive) | > 100 µM (inactive) | > 100 µM (inactive) | > 100 µM (inactive) | > 100 µM (inactive) | > 100 µM (inactive) | > 100 µM (inactive) | 46.2 µM (inactive) | > 100 µM (inactive) | > 100 µM (inactive) | > 100 µM (inactive) | > 100 µM (inactive) | > 100 µM (inactive) | > 100 µM (inactive) |  | > 100 µM (inactive) |  |
| CC(NC(=O)C(NC(=O)OCc1ccccc1)C(C)C)C(=O)NCC(=O)O (stereo not drawn) (Cbz-Val-Ala-Gly-OH; configuration not given here) | > 100 µM (inactive) | > 100 µM (inactive) |  | > 100 µM (inactive) | > 100 µM (inactive) | > 100 µM (inactive) | > 100 µM (inactive) | > 100 µM (inactive) | > 100 µM (inactive) | > 100 µM (inactive) | > 100 µM (inactive) | > 100 µM (inactive) | > 100 µM (inactive) |  | > 100 µM (inactive) | > 100 µM (inactive) | > 100 µM (inactive) | > 100 µM (inactive) | > 100 µM (inactive) |  |
